As a reminder, the EC50 is the concentration at which the effect is half-maximal. As usually defined, the thermodynamic solubility is the concentration in solution at equilibrium with solid.

Each structure is given as a SMILES string. Converted amounts (≈) assume the structure as drawn. Read-outs that look alike come from different tables or passages of the source. A value given as a limit tells only on which side of the number the result lay.

The values that follow come from patent US20250127801A1, “BRIDGED TRICYCLIC CARBAMOYLPYRIDONE COMPOUNDS AND USES THEREOF” (priority 2023, published 2025).

One series is described as follows: in vitro. As to conditions: human; for CC50 at 5 days: uninfected MT-4 cells.
A further series relates to HIV-1 (IIIB). The series can be described thus: microbe, parasite or virus in culture. In kind it is cell-based.
The nature of the next series: physchem. Conditions: 23 °C, thermodynamic from solid; for solubility thermodynamic at 24 h: FaSSIF; for solubility thermodynamic: fassif.
[1] abbreviates: Human immunodeficiency virus 1, MT4, 120 h, HIV-1 (IIIB) replication in MT-4 cells, 5 days incubation, Cell Titer Glo, read-out: MT4 EC50.
[2] abbreviates: Human immunodeficiency virus 1, IIIB, MT4, 120 h, read-out: MT4 EC50 (nM).

As for `CC1=NO[C@@]2(CC[C@H](C)N3C[C@H]2n2cc(C(=O)NCc4ccc(F)cc4F)c(=O)c(OCOC(=O)N(C)c4ncccc4CN(CC(=O)O)C(=O)OCOP(=O)(O)O)c2C3=O)C1` [Compound 7, N-((2-((((((3′S,5S,7′R)-10′-((2,4-difluorobenzyl)carbamoyl)-3,3′-dimethyl-1′,11′-dioxo-1′,4′,5′,11′-tetrahydro-3′H,4H,7′H-spiro[isoxazole-5,6′-[2,7]methanopyrido[1,2-a][1,4]diazonin]-12′-yl)oxy)methoxy)carbonyl)(methyl)amino)-pyridin-3-yl)methyl)-N-(((phosphonooxy)methoxy)carbonyl)glycine], the CC50 at 5 days in the series “in vitro” was found to be 10800 nM. The EC50 with HIV-1 (IIIB) (setting [1]) amounted to 1.48 nM. This compound displayed a thermodynamic solubility at 24 h in “physchem” of 4660 µg/mL (≈ 5.22 mM).

With `CC1=NO[C@@]2(CC[C@H](C)N3C[C@H]2n2cc(C(=O)NCc4ccc(F)cc4F)c(=O)c(OC(=O)CC(C)(C)c4c(C)cc(C)cc4OP(=O)(O)O)c2C3=O)C1` [Compound 26, (3′S,5S,7′R)-10′-((2,4-difluorobenzyl)carbamoyl)-3,3′-dimethyl-1′,11′-dioxo-1′,4′,5′,11′-tetrahydro-3′H,4H,7′H-spiro[isoxazole-5,6′-[2,7]methanopyrido[1,2-a][1,4]diazonin]-12′-yl 3-(2,4-dimethyl-6-(phosphonooxy)phenyl)-3-methylbutanoate], the CC50 in “in vitro” came out at 12200 nM. In the series on HIV-1 (IIIB) (setting [2]), the EC50 came to 1.13 nM. The solubility (thermodynamic) in “physchem” is 4300 µg/mL (≈ 5.57 mM).

For the compound `CC1=NO[C@@]2(CC[C@H](C)N3C[C@H]2n2cc(C(=O)NCc4ccc(F)cc4F)c(=O)c(OCOC(=O)OCc4ccncc4OP(=O)(O)O)c2C3=O)C1` [Compound 72, (((3′S,5S,7′R)-10′-((2,4-difluorobenzyl)carbamoyl)-3,3′-dimethyl-1′,11′-dioxo-1′,4′,5′,11′-tetrahydro-3′H,4H,7′H-spiro[isoxazole-5,6′-[2,7]methanopyrido[1,2-a][1,4]diazonin]-12′-yl)oxy)methyl ((3-(phosphonooxy)pyridin-4-yl)methyl) carbonate], the CC50 in the series “in vitro” was found to be 11200 nM. Further, in the series with HIV-1 (IIIB) (setting [2]), the EC50 worked out at 1.34 nM. The compound further gave a solubility (thermodynamic) in “physchem” of 2560 µg/mL (≈ 3.42 mM).

In the case of `COC1=NO[C@@]2(CC[C@H](C)N3C[C@H]2n2cc(C(=O)NCc4ccc(F)cc4F)c(=O)c(OC(=O)N(C)c4ncccc4CN(CC(=O)O)C(=O)OCOP(=O)(O)O)c2C3=O)C1` [Compound 59, N-((2-(((((3′S,5S,7′R)-10′-((2,4-difluorobenzyl)carbamoyl)-3-methoxy-3′-methyl-1′,11′-dioxo-1′,4′,5′,11′-tetrahydro-3′H,4H,7′H-spiro[isoxazole-5,6′-[2,7]methanopyrido[1,2-a][1,4]diazonin]-12′-yl)oxy)carbonyl)(methyl)amino)pyridin-3-yl)methyl)-N-(((phosphonooxy)methoxy)carbonyl)glycine], the CC50 in the series “in vitro” came to 10600 nM. Also, the EC50 in the series with HIV-1 (IIIB) (setting [2]) was determined as 1.2 nM. Also, in the series “physchem”, the solubility (thermodynamic) amounted to 5280 µg/mL (≈ 6.01 mM).

For `CC1=NO[C@@]2(CC[C@H](C)N3C[C@H]2n2cc(C(=O)NCc4ccc(F)cc4F)c(=O)c(OCOC(=O)N(C)Cc4ccc(OP(=O)(O)O)cc4)c2C3=O)C1` [Compound 39, (((3′S,5S,7′R)-10′-((2,4-difluorobenzyl)carbamoyl)-3,3′-dimethyl-1′,11′-dioxo-1′,4′,5′,11′-tetrahydro-3′H,4H,7′H-spiro[isoxazole-5,6′-[2,7]methanopyrido[1,2-a][1,4]diazonin]-12′-yl)oxy)methyl methyl(4-(phosphonooxy)benzyl)carbamate], in “in vitro”, the CC50 is no less than 50000 nM. For the same compound, the EC50 with HIV-1 (IIIB) (setting [2]) came to 88.7 nM. This compound also had a thermodynamic solubility in the series “physchem” of 4830 µg/mL (≈ 6.36 mM).

Compound `COC1=NO[C@@]2(CC[C@H](C)N3C[C@H]2n2cc(C(=O)NCc4ccc(F)cc4F)c(=O)c(OCOC(=O)N(C)c4ncccc4COP(=O)(O)O)c2C3=O)C1` [Compound 3, (((3′S,5S,7′R)-10′-((2,4-difluorobenzyl)carbamoyl)-3-methoxy-3′-methyl-1′,11′-dioxo-1′,4′,5′,11′-tetrahydro-3′H,4H,7′H-spiro[isoxazole-5,6′-[2,7]methanopyrido[1,2-a][1,4]diazonin]-12′-yl)oxy)methylmethyl(3-((phosphonooxy)methyl)pyridin-2-yl)carbamate] displayed a CC50 at 5 days in “in vitro” of 12600 nM. Besides, in the series with HIV-1 (IIIB) (setting [1]), the EC50 stood at 2.15 nM. Moreover, the thermodynamic solubility at 24 h in the series “physchem” came to 5410 µg/mL (≈ 6.97 mM).

On to `COC1=NO[C@@]2(CC[C@H](C)N3C[C@H]2n2cc(C(=O)NCc4ccc(F)cc4F)c(=O)c(OCOC(=O)N(C)C[C@@H]4CCCN4)c2C3=O)C1` [Compound 15, (((3′S,5S,7′R)-10′-((2,4-difluorobenzyl)carbamoyl)-3-methoxy-3′-methyl-1′,11′-dioxo-1′,4′,5′,11′-tetrahydro-3′H,4H,7′H-spiro[isoxazole-5,6′-[2,7]methanopyrido[1,2-a][1,4]diazonin]-12′-yl)oxy)methyl methyl(((S)-pyrrolidin-2-yl)methyl)carbamate], for which, in “in vitro”, the CC50 at 5 days is 14700 nM. In addition, the EC50 in the series with HIV-1 (IIIB) (setting [1]) is 1.61 nM. Further, the solubility (thermodynamic) at 24 h in the series “physchem” stood at 1480 µg/mL (≈ 2.19 mM).

In the series “in vitro”, `CC1=NO[C@@]2(CC[C@H](C)N3C[C@H]2n2cc(C(=O)NCc4ccc(F)cc4F)c(=O)c(OCOC(=O)O[C@H]4CCC[C@@H]4OP(=O)(O)O)c2C3=O)C1` [Compound 46, (((3′S,5S,7′R)-10′-((2,4-difluorobenzyl)carbamoyl)-3,3′-dimethyl-1′,11′-dioxo-1′,4′,5′,11′-tetrahydro-3′H,4H,7′H-spiro[isoxazole-5,6′-[2,7]methanopyrido[1,2-a][1,4]diazonin]-12′-yl)oxy)methyl ((1S,2S)-2-(phosphonooxy)cyclopentyl) carbonate] returned a CC50 at 5 days of 15100 nM. The EC50 in the series with HIV-1 (IIIB) (setting [1]) was 2.51 nM. This compound came in with a thermodynamic solubility at 24 h in “physchem” of 4850 µg/mL (≈ 6.69 mM).

`CCCCCCCCCCCCCC(=O)Nc1ccc(CC(=O)Oc2c3n(cc(C(=O)NCc4ccc(F)cc4F)c2=O)[C@@H]2CN(C3=O)[C@@H](C)CC[C@]23CC(OC)=NO3)cc1` [Compound 93, (3′S,5S,7′R)-10′-((2,4-difluorobenzyl)carbamoyl)-3-methoxy-3′-methyl-1′,11′-dioxo-1′,4′,5′,11′-tetrahydro-3′H,4H,7′H-spiro[isoxazole-5,6′-[2,7]methanopyrido[1,2-a][1,4]diazonin]-12′-yl 2-(4-tetradecanamidophenyl)acetate] had a CC50 at 5 days in the series “in vitro” of no less than 50000 nM. Besides, the EC50 in the series on HIV-1 (IIIB) (setting [1]) stood at 1.36 nM. Further, in “physchem”, the thermodynamic solubility at 24 h came to 6 µg/mL (≈ 0.00709 mM).

On to `CC1=NO[C@@]2(CC[C@H](C)N3C[C@H]2n2cc(C(=O)NCc4ccc(F)cc4F)c(=O)c(OCOC(=O)N(C)C[C@@H]4CCCN4C(=O)OCOP(=O)(O)O)c2C3=O)C1` [Compound 14, (phosphonooxy)methyl (2S)-2-(((((((3′S,5S,7′R)-10′-((2,4-difluorobenzyl)carbamoyl)-3,3′-dimethyl-1′,11′-dioxo-1′,4′,5′,11′-tetrahydro-3′H,4H,7′H-spiro[isoxazole-5,6′-[2,7]methanopyrido[1,2-a][1,4]diazonin]-12′-yl)oxy)methoxy)carbonyl)(methyl)amino)methyl)pyrrolidine-1-carboxylate], for which the CC50 at 5 days in “in vitro” turned out to be 16800 nM. In addition, in the series on HIV-1 (IIIB) (setting [1]), the EC50 is 1.25 nM. Moreover, the solubility (thermodynamic) at 24 h in “physchem” came to 5090 µg/mL (≈ 6.28 mM).

As for `COC1=NO[C@@]2(CC[C@H](C)N3C[C@H]2n2cc(C(=O)NCc4ccc(F)cc4F)c(=O)c(OCOC(=O)OCC4(COP(=O)(O)O)CCC4)c2C3=O)C1` [Compound 48, (((3′S,5S,7′R)-10′-((2,4-difluorobenzyl)carbamoyl)-3-methoxy-3′-methyl-1′,11′-dioxo-1′,4′,5′,11′-tetrahydro-3′H,4H,7′H-spiro[isoxazole-5,6′-[2,7]methanopyrido[1,2-a][1,4]diazonin]-12′-yl)oxy)methyl ((1-((phosphonooxy)methyl)cyclobutyl)methyl) carbonate], in the series “in vitro”, the CC50 at 5 days came out at 15700 nM. Besides, the EC50 in the series on HIV-1 (IIIB) (setting [1]) stood at 3.82 nM. In the series “physchem”, this compound showed a thermodynamic solubility at 24 h of 4920 µg/mL (≈ 6.51 mM).

In the series “in vitro”, `CC1=NO[C@@]2(CC[C@H](C)N3C[C@H]2n2cc(C(=O)NCc4ccc(F)cc4F)c(=O)c(OCOC(=O)N(C)c4ncccc4COC(=O)[C@@H](N)CCCCN)c2C3=O)C1` [Compound 10, (2-((((((3′S,5S,7′R)-10′-((2,4-difluorobenzyl)carbamoyl)-3,3′-dimethyl-1′,11′-dioxo-1′,4′,5′,11′-tetrahydro-3′H,4H,7′H-spiro[isoxazole-5,6′-[2,7]methanopyrido[1,2-a][1,4]diazonin]-12′-yl)oxy)methoxy)carbonyl)(methyl)amino)pyridin-3-yl)methyl L-lysinate] had a CC50 at 5 days of 10200 nM. Also, the EC50 in the series on HIV-1 (IIIB) (setting [1]) worked out at 3.19 nM. Moreover, the thermodynamic solubility at 24 h in the series “physchem” came out at 3320 µg/mL (≈ 4.11 mM).

Regarding `CC1=NO[C@@]2(CC[C@H](C)N3C[C@H]2n2cc(C(=O)NCc4ccc(F)cc4F)c(=O)c(OC(=O)N(C)c4ncccc4CN(CC(=O)OC(C)(C)C)C(=O)OCOP(=O)(O)O)c2C3=O)C1` [Compound 5, tert-butyl N-((2-(((((3′S,5S,7′R)-10′-((2,4-difluorobenzyl)carbamoyl)-3,3′-dimethyl-1′,11′-dioxo-1′,4′,5′,11′-tetrahydro-3′H,4H,7′H-spiro[isoxazole-5,6′-[2,7]methanopyrido[1,2-a][1,4]diazonin]-12′-yl)oxy)carbonyl)(methyl)amino)pyridin-3-yl)methyl)-N-(((phosphonooxy)methoxy)carbonyl)glycinate], the CC50 in the series “in vitro” was 10300 nM. In the series on HIV-1 (IIIB) (setting [2]), the EC50 turned out to be 1.24 nM. The same compound yielded a thermodynamic solubility in the series “physchem” of 4010 µg/mL (≈ 4.37 mM).

Compound `CC1=NO[C@@]2(CC[C@H](C)N3C[C@H]2n2cc(C(=O)NCc4ccc(F)cc4F)c(=O)c(OCOC(=O)N(C)Cc4ccccc4OP(=O)(O)O)c2C3=O)C1` [Compound 37, (((3′S,5S,7′R)-10′-((2,4-difluorobenzyl)carbamoyl)-3,3′-dimethyl-1′,11′-dioxo-1′,4′,5′,11′-tetrahydro-3′H,4H,7′H-spiro[isoxazole-5,6′-[2,7]methanopyrido[1,2-a][1,4]diazonin]-12′-yl)oxy)methyl methyl(2-(phosphonooxy)benzyl)carbamate] had a CC50 in “in vitro” of 33500 nM. For the same compound, the EC50 in the series on HIV-1 (IIIB) (setting [2]) turned out to be 13.3 nM. Also, the solubility (thermodynamic) in the series “physchem” is 4500 µg/mL (≈ 5.92 mM).
